Measurements from patent US7767665B2, “1,3-benzothiazinone derivatives and use thereof” (Takeda Pharmaceutical Company Limited, priority 2001, dated 2010).

For CN(CC(=O)O)c1nccc(-c2nc(=O)c3ccccc3s2)n1 [Example 294, {Methyl [6-(4-oxo-4H-1,3-benzothiazin-2-yl)-2-pyrimidinyl]amino}acetic acid], the melting point was 215 °C (dec.).
For CN(C)CCSc1cncc(-c2nc(=O)c3ccccc3s2)n1 [Example 297], the melting point was 160.5 °C (dec.).
In the case of O=c1nc(-c2cc(CCc3nnn[nH]3)ccn2)sc2ccccc12 [Example 316, 2-{4-[2-(1H-1,2,3,4-Tetrazol-5-yl)ethyl]-2-pyridyl}-4H-1,3-benzothiazine-4-one], the melting point is reported as 250 °C (dec.).
For Cc1cc(CCC(=O)O)cc(-c2nc(=O)c3ccc(Cl)cc3s2)n1 [Example 322, 3-[2-(7-Chloro-4-oxo-4H-1,3-benzothiazin-2-yl)-6-methyl-4-pyridyl]propionic acid], the melting point was 273.5 °C (dec.).

Compared with CC(C)(C)OC(=O)CNc1nccc(-c2nc(=O)c3ccccc3s2)n1 [Example 295, tert-Butyl {[6-(4-oxo-4H-1,3-benzothiazin-2-yl)-2-pyrimidinyl]amino}acetate], O=C(O)CNc1nccc(-c2nc(=O)c3ccccc3s2)n1 [Example 296, {[6-(4-Oxo-4H-1,3-benzothiazin-2-yl)-2-pyrimidinyl]amino}acetic acid] is higher in melting point: 247 to 248 °C for the first, 283 to 284 °C for the second.

Compared with CSc1ccnc(-c2nc(=O)c3ccccc3s2)c1 [Example 298, 2-[4-(Methylthio)-2-pyridyl]-4H-1,3-benzothiazine-4-one], CS(=O)(=O)c1ccnc(-c2nc(=O)c3ccccc3s2)c1 [Example 300, 2-[4-(Methylsulfonyl)-2-pyridyl]-4H-1,3-benzothiazine-4-one] is higher in melting point: 213 to 214 °C for the first, 300 to 301 °C for the second.

First: C[S+]([O-])c1ccnc(-c2nc(=O)c3ccccc3s2)c1 (centres unmarked) [Example 299, 2-[4-(Methylsulfinyl)-2-pyridyl]-4H-1,3-benzothiazine-4-one]
Second: N#CCCc1ccnc(-c2nc(=O)c3ccccc3s2)c1 [Example 317, 3-[2-(4-Oxo-4H-1,3-benzothiazin-2-yl)-4-pyridyl]propionitrile]
The melting point of the first is higher: 205 to 206 °C for the first, 178.3 to 179 °C for the second.

Compared with CC(=O)OCCCc1cccc(-c2nc(=O)c3ccccc3s2)n1 [Example 301, 3-[6-(4-Oxo-4H-1,3-benzothiazin-2-yl)-2-pyridyl]propyl acetate], O=c1nc(-c2cccc(CCCO)n2)sc2ccccc12 [Example 302, 2-[6-(3-Hydroxypropyl)-2-pyridyl]-4H-1,3-benzothiazine-4-one] is higher in melting point: 141.3 to 141.6 °C for the first, 145.5 to 146 °C for the second.

First: CCOC(=O)CCCCc1cccc(-c2nc(=O)c3ccccc3s2)n1 [Example 303, Ethyl 5-[6-(4-oxo-4H-1,3-benzothiazin-2-yl)-2-pyridyl]valerate]
Second: O=C(O)CCCCc1cccc(-c2nc(=O)c3ccccc3s2)n1 [Example 304, 5-[6-(4-Oxo-4H-1,3-benzothiazin-2-yl)-2-pyridyl]valeric acid]
The melting point of the first is lower: 87 to 88 °C for the first, 161.9 to 162.3 °C for the second.

O=c1nc(-c2cccc(CCc3nnn[nH]3)n2)sc2ccccc12 [Example 305, 2-{6-[2-(1H-1,2,3,4-tetrazol-5-yl)ethyl]-2-pyridyl}-4H-1,3-benzothiazine-4-one] and N#CCCc1cccc(-c2nc(=O)c3ccccc3s2)n1 [Example 306, 3-[6-(4-Oxo-4H-1,3-benzothiazin-2-yl)-2-pyridyl]propionitrile] fall in the same range of melting point: 156.6 to 157 °C for the first, 156.6 to 157 °C for the second.

First: O=C(O)CCCCCCc1cccc(-c2nc(=O)c3ccccc3s2)n1 [Example 307, 7-[6-(4-Oxo-4H-1,3-benzothiazin-2-yl)-2-pyridyl]heptanoic acid]
Second: O=C(O)CNC(=O)CCc1cccc(-c2nc(=O)c3ccccc3s2)n1 [Example 312, ({3-[6-(4-Oxo-4H-1,3-benzothiazin-2-yl)-2-pyridyl]propanoyl}amino)acetic acid]
The melting point of the first is lower: 148.6 to 150.6 °C for the first, 219.2 to 219.8 °C for the second.

First: O=C(O)CCc1ccnc(-c2nc(=O)c3ccccc3s2)c1 [Example 308, 3-[2-(4-Oxo-4H-1,3-benzothiazin-2-yl)-4-pyridyl]propionic acid]
Second: CC(C)(C)OC(=O)CCc1ccnc(-c2nc(=O)c3ccccc3s2)c1 [Example 309, tert-butyl 3-[2-(4-oxo-4H-1,3-benzothiazin-2-yl)-4-pyridyl]propionate]
The melting point of the first is higher: 215.3 to 215.9 °C for the first, 135.8 to 136.7 °C for the second.

First: O=C(O)/C=C/c1ccnc(-c2nc(=O)c3ccccc3s2)c1 [Example 310, (E)-3-[2-(4-Oxo-4H-1,3-benzothiazin-2-yl)-4-pyridyl]acrylic acid]
Second: CC(C)(C)OC(=O)/C=C/c1ccnc(-c2nc(=O)c3ccccc3s2)c1 [Example 311, tert-Butyl (E)-3-[2-(4-oxo-4H-1,3-benzothiazin-2-yl)-4-pyridyl]acrylate]
The melting point of the first is higher: 284.3 to 285 °C for the first, 196 to 196.7 °C for the second.

First: O=C(O)[C@@H]1CCCN1C(=O)CCc1cccc(-c2nc(=O)c3ccccc3s2)n1 [Example 313, 1-{3-[6-(4-Oxo-4H-1,3-benzothiazin-2-yl)-2-pyridyl]propanoyl}proline]
Second: CN(CC(=O)O)C(=O)CCc1cccc(-c2nc(=O)c3ccccc3s2)n1 [Example 314, (Methyl{3-[6-(4-oxo-4H-1,3-benzothiazin-2-yl)-2-pyridyl]propanoyl}amino)acetic acid]
The melting point of the first is higher: 210.5 to 211 °C for the first, 194.5 to 194.8 °C for the second.

CCOC(=O)C(C)Cc1cccc(-c2nc(=O)c3ccccc3s2)n1 (centres unmarked) [Example 315, Ethyl 2-methyl-3-[6-(4-oxo-4H-1,3-benzothiazin-2-yl)-2-pyridyl]propionate] and CCOC(=O)C(C)Cc1ccnc(-c2nc(=O)c3ccccc3s2)c1 (centres unmarked) [Example 318, Ethyl 2-methyl-3-[2-(4-oxo-4H-1,3-benzothiazin-2-yl)-4-pyridyl]propionate] cannot be ordered by melting point: 120.2 to 120.7 °C for the first, 120.3 to 120.7 °C for the second.

Compared with Cc1cc(CCC(=O)OC(C)(C)C)cc(-c2nc(=O)c3ccccc3s2)n1 [Example 319, tert-Butyl 3-[2-methyl-6-(4-oxo-4H-1,3-benzothiazin-2-yl)-4-pyridyl]propanoate], Cc1cc(CCC(=O)OC(C)(C)C)cc(-c2nc(=O)c3ccc(Cl)cc3s2)n1 [Example 320, tert-Butyl 3-[2-(7-chloro-4-oxo-4H-1,3-benzothiazin-2-yl)-6-methyl-4-pyridyl]propanoate] is higher in melting point: 129.4 to 130.5 °C for the first, 186.4 to 187.6 °C for the second.

First: Cc1cc(CCC(=O)O)cc(-c2nc(=O)c3ccccc3s2)n1 [Example 321, 3-[2-Methyl-6-(4-oxo-4H-1,3-benzothiazin-2-yl)-4-pyridyl]propionic acid]
Second: O=C(O)CN1CCN(c2ccnc(-c3nc(=O)c4ccccc4s3)c2)C1=O [Example 324, [2-Oxo-3-[2-(4-oxo-4H-1,3-benzothiazin-2-yl)-4-pyridyl]-1-imidazolidinyl]acetic acid]
The melting point of the first is lower: 233.2 to 234.7 °C for the first, 271 to 273 °C for the second.

Compared with CC(C)(C)OC(=O)CN1CCN(c2ccnc(-c3nc(=O)c4ccccc4s3)c2)C1=O [Example 323, tert-Butyl [2-oxo-3-[2-(4-oxo-4H-1,3-benzothiazin-2-yl)-4-pyridyl]-1-imidazolidinyl]acetate], CCN1CCN(c2ccnc(-c3nc(=O)c4ccccc4s3)c2)C1=O [Example 325, 2-[4-(3-Ethyl-2-oxo-1-imidazolidinyl)-2-pyridyl]-4H-1,3-benzothiazine-4-one] is higher in melting point: 192.3 to 194 °C for the first, 211.5 to 213 °C for the second.
